Source: paper PMC5762309 (Oncotarget, 2017)

Experiments:
CHEK1 = target: T1, CHEK1 (Homo sapiens, UniProt O14757); assay: KINOMEScan; format: binding; design: dose or concentration left out as unconfirmed
T1 construct: purchased DiscoverX KINOMEscan

EGFR(T790M) = target: T2, EGFR(T790M) (Homo sapiens, UniProt P00533, T790M); assay: KINOMEScan; format: binding
T2 construct: purchased DiscoverX KINOMEscan

QSK = target: T3, QSK (Homo sapiens, UniProt Q9Y2K2); assay: KINOMEScan; format: binding; design: dose or concentration left out as unconfirmed
T3 construct: purchased DiscoverX KINOMEscan

CDK3 = target: T4, CDK3 (Homo sapiens, UniProt Q00526); assay: KINOMEScan; format: binding; design: dose or concentration left out as unconfirmed
T4 construct: purchased DiscoverX KINOMEscan

ACVR2B = target: T5, ACVR2B (Homo sapiens, UniProt Q13705); assay: KINOMEScan; format: binding; design: dose or concentration left out as unconfirmed
T5 construct: purchased DiscoverX KINOMEscan

KIT V559D [1] = target: T6, KIT V559D (Homo sapiens, UniProt P10721, V559D); assay: KIT auto-phosphorylation in KIT V559D overexpressed Colo320DM cells; format: cell-based; design: expressed in transfected cells; host or cells: Colo320DM (transient)
Source text: In order to better define CHMFL-KIT-031’s inhibitory effect against KIT V559D mutant, we then tested it with purified KIT wt/V559D kinase protein by ADP-Glo assay (Figure 2A). […] We also transformed and overexpressed KIT V559D transiently into Colo320DM cells which express wt KIT kinase and tested CHMFL-KIT-031’s inhibitory effects for the auto-phosphorylation of KIT Y703, 719 and Y823 sites.
KIT-V559D kinase domain coding sequence was inserted into a pMSCV puro vector (Clontech) that was modified by inserting a 3×FLAG sequence at the 3’ end of the multicloning sites. The vector was transiently transfected into Colo320DM cells with TransIN™EL transfection reagent.
Target sequence in this assay (P10721 546-976 V559D limits assumed): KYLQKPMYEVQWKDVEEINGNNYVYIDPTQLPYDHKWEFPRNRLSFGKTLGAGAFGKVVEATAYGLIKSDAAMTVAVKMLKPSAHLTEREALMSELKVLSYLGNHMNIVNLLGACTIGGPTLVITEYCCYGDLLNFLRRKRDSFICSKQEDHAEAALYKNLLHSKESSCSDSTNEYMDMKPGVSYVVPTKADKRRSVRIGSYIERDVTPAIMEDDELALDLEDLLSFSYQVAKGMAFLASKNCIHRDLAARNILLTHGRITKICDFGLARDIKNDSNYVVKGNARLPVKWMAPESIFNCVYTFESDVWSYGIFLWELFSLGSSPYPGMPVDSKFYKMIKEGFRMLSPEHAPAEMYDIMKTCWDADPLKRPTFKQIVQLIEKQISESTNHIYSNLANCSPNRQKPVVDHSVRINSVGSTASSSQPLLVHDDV

KIT V559D/V654A = KIT V559D/V654A (Homo sapiens, UniProt P10721, V559D/V654A); assay: KIT auto-phosphorylation in transformed BaF3 cells; settings: 2h
KIT wt = KIT wt (Homo sapiens, UniProt P10721); assay: Kd determination by MST; format: binding; design: wt KIT residues 544-935 with a His tag; His tag; made in house; host or cells: SF9 insect cells (baculovirus); settings: purified protein
EGFR(E746-A750del) = target: T7, EGFR(E746-A750del) (Homo sapiens, UniProt P00533, DEL746-750); assay: KINOMEScan; format: binding; settings: Concentrations 1 mM
T7 construct: purchased DiscoverX KINOMEscan

[2] = target: T8, RSK4(Kin.Dom.1-N-terminal) (Homo sapiens, UniProt Q9UK32); assay: KINOMEScan; format: binding
T8 construct: RSK4(Kin.Dom.1-N-terminal); purchased DiscoverX KINOMEscan

CSK = target: T9, CSK (Homo sapiens, UniProt P41240); assay: KINOMEScan; format: binding; design: dose or concentration left out as unconfirmed
T9 construct: purchased DiscoverX KINOMEscan

[3] = target: T10, RSK4(Kin.Dom.2-C-terminal) (Homo sapiens, UniProt Q9UK32); assay: KINOMEScan; format: binding
T10 construct: RSK4(Kin.Dom.2-C-terminal); purchased DiscoverX KINOMEscan

MET(M1250T) = target: T11, MET(M1250T) (Homo sapiens, UniProt P08581, M1250T); assay: KINOMEScan; format: binding; design: dose or concentration left out as unconfirmed
T11 construct: purchased DiscoverX KINOMEscan

LZK = target: T12, LZK (Homo sapiens, UniProt O43283); assay: KINOMEScan; format: binding; design: dose or concentration left out as unconfirmed
T12 construct: purchased DiscoverX KINOMEscan

468 kinases/mutants = assay: KINOMEScan kinome-wide selectivity S score; format: binding; settings: 1 μM
Source text: Then we used the DiscoverX’s KINOMEScan platform to further examine CHMFL-KIT-031’s kinome-wide selectivity profile. […] Besides the strong binding to V559D, it also bound strongly to KIT wt, L576P and A829P.

KIT V559D [4] = target: T6, KIT V559D; assay: KIT auto-phosphorylation in transformed BaF3 cells; settings: 2h
Target sequence in this assay (P10721 546-976 V559D): as the sequence (P10721 546-976 V559D limits assumed) above

MARK4 = target: T13, MARK4 (Homo sapiens, UniProt Q96L34); assay: KINOMEScan; format: binding; design: dose or concentration left out as unconfirmed
T13 construct: purchased DiscoverX KINOMEscan

CIT = target: T14, CIT (Homo sapiens, UniProt O14578); assay: KINOMEScan; format: binding; design: dose or concentration left out as unconfirmed
T14 construct: purchased DiscoverX KINOMEscan

BaF3 = assay: Anti-proliferation assay, parental BaF3 cells; format: cell-based; settings: Mus musculus, 72 hours, CellTiter-Glo
Method: The KIT mutant isogenic BaF3 cells lines and Colo320DM cells were cultured in RPMI 1640 media (Corning, USA) with 10% fetal bovine serum (FBS) and supplemented with 2% L-glutamine 1% penicillin/streptomycin, the BaF3 cell line was cultured in RPMI 1640 media (Corning, USA) with 1% IL-3, 10% fetal bovine serum (FBS) and supplemented with 2% L-glutamine 1% penicillin/streptomycin. All cell lines were maintained in culture media at 37°C with 5% CO2.
Cells were grown in 96-well culture plates (2500/well). The compounds of various concentrations were added into the plates. Cell proliferation was determined after treatment with compounds for 72 hours. Cell viability was measured using the CellTiter–Glo assay (Promega, USA), according to the manufacturer’s instructions, and luminescence was measured in a multi-label reader (Envision, PerkinElmer, USA). Data were normalized to control groups (DMSO) and represented by the mean of three independent measurements with standard error <20%. GI50 values were calculated using Prism 5.0 (GraphPad Software, San Diego, CA).

IRAK4 = target: T15, IRAK4 (Homo sapiens, UniProt Q9NWZ3); assay: KINOMEScan; format: binding; design: dose or concentration left out as unconfirmed
T15 construct: purchased DiscoverX KINOMEscan

FLT3(ITD,F691L) = assay: KINOMEScan; format: binding; design: dose or concentration left out as unconfirmed
FLT3(ITD,D835V) = assay: KINOMEScan; format: binding; design: dose or concentration left out as unconfirmed
KIT V654A = KIT V654A (Homo sapiens, UniProt P10721, V654A); assay: KIT auto-phosphorylation in transformed BaF3 cells; settings: 2h
LATS2 = target: T16, LATS2 (Homo sapiens, UniProt Q9NRM7); assay: KINOMEScan; format: binding; design: dose or concentration left out as unconfirmed
T16 construct: purchased DiscoverX KINOMEscan

MST3 = target: T17, MST3 (Homo sapiens, UniProt Q9Y6E0); assay: KINOMEScan; format: binding; design: dose or concentration left out as unconfirmed
T17 construct: purchased DiscoverX KINOMEscan

MET = target: T18, MET (Homo sapiens, UniProt P08581); assay: KINOMEScan; format: binding; design: dose or concentration left out as unconfirmed
T18 construct: purchased DiscoverX KINOMEscan

CDK11 = target: T19, CDK11 (Homo sapiens, UniProt Q9BWU1); assay: KINOMEScan; format: binding; design: dose or concentration left out as unconfirmed
T19 construct: purchased DiscoverX KINOMEscan

[5] = EC50 pY703 auto-phosphorylation
[6] = EC50 pY719 auto-phosphorylation
[7] = EC50 pY823 auto-phosphorylation

Sequence of KIT V559D/V654A (P10721 546-976 V559D/V654A): as the sequence (P10721 546-976 V559D limits assumed) above, with V109A counted along it
Sequence of KIT V654A (P10721 546-976 V654A): as the sequence (P10721 546-976 V559D limits assumed) above, with D14V, V109A counted along it
T4 sequence (Q00526 whole entry): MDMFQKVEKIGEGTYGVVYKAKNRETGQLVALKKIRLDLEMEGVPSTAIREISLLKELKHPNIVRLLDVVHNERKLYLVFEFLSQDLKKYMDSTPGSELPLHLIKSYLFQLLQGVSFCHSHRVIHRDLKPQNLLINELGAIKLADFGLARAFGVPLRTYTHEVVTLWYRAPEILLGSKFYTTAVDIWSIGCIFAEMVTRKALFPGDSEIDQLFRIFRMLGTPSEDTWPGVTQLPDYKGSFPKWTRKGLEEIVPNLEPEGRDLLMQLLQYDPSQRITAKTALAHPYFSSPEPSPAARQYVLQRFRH
T13 sequence (Q96L34 whole entry): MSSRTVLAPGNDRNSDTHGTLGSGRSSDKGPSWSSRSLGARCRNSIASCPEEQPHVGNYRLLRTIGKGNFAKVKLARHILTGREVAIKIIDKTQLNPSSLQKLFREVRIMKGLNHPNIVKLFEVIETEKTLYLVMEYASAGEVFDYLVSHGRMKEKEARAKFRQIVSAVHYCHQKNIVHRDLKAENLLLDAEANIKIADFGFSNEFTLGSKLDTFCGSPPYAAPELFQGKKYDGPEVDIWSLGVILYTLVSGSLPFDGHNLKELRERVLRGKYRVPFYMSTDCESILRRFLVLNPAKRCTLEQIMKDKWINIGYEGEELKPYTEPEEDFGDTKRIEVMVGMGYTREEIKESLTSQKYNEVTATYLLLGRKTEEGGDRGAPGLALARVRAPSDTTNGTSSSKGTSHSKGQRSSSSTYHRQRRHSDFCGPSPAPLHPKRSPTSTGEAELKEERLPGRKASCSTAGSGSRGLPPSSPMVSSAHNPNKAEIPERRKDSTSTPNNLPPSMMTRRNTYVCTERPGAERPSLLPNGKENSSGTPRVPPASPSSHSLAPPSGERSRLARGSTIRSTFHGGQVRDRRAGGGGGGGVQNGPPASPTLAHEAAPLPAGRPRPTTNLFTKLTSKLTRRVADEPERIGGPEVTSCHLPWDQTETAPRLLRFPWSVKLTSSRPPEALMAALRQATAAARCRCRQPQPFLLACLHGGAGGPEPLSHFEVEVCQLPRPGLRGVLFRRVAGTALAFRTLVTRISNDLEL
T12 sequence (O43283 whole entry): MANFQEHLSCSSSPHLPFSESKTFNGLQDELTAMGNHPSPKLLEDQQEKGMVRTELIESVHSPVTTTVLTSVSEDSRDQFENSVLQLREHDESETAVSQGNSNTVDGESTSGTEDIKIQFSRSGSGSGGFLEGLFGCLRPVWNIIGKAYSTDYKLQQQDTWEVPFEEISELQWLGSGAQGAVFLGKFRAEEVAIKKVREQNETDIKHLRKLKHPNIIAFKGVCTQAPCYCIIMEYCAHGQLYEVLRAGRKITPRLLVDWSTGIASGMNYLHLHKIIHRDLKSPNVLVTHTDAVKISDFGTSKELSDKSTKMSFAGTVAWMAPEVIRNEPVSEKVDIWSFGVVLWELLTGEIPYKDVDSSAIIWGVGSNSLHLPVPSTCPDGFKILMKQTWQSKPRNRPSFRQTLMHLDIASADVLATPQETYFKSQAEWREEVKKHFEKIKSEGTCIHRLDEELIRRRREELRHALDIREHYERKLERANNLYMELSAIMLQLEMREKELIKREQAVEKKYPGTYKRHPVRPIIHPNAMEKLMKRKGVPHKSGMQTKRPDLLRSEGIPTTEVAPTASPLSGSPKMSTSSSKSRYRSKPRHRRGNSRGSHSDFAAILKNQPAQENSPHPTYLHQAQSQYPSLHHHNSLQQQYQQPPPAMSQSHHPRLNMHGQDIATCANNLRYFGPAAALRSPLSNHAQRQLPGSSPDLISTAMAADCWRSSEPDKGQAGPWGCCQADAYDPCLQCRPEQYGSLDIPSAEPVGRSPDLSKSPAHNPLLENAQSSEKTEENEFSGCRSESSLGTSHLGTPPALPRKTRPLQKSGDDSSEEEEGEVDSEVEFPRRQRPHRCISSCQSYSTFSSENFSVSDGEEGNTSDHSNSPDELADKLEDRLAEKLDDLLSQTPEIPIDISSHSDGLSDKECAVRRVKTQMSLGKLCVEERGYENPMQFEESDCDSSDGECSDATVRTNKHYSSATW
T19 sequence (Q9BWU1 whole entry): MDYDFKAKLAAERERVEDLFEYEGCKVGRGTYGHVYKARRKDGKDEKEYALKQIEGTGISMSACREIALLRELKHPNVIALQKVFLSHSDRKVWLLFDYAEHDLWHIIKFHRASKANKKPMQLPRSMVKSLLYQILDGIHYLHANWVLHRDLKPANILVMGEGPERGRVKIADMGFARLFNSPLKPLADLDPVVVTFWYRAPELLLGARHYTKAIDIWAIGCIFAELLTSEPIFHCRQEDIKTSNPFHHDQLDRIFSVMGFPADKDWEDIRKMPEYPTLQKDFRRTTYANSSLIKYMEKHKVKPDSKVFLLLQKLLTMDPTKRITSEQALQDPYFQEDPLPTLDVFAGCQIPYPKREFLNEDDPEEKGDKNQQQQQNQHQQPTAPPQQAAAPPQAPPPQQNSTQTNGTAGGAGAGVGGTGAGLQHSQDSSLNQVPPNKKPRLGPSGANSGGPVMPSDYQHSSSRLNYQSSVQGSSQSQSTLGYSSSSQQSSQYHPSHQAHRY
T11 sequence (P08581 25-1390 M1250T): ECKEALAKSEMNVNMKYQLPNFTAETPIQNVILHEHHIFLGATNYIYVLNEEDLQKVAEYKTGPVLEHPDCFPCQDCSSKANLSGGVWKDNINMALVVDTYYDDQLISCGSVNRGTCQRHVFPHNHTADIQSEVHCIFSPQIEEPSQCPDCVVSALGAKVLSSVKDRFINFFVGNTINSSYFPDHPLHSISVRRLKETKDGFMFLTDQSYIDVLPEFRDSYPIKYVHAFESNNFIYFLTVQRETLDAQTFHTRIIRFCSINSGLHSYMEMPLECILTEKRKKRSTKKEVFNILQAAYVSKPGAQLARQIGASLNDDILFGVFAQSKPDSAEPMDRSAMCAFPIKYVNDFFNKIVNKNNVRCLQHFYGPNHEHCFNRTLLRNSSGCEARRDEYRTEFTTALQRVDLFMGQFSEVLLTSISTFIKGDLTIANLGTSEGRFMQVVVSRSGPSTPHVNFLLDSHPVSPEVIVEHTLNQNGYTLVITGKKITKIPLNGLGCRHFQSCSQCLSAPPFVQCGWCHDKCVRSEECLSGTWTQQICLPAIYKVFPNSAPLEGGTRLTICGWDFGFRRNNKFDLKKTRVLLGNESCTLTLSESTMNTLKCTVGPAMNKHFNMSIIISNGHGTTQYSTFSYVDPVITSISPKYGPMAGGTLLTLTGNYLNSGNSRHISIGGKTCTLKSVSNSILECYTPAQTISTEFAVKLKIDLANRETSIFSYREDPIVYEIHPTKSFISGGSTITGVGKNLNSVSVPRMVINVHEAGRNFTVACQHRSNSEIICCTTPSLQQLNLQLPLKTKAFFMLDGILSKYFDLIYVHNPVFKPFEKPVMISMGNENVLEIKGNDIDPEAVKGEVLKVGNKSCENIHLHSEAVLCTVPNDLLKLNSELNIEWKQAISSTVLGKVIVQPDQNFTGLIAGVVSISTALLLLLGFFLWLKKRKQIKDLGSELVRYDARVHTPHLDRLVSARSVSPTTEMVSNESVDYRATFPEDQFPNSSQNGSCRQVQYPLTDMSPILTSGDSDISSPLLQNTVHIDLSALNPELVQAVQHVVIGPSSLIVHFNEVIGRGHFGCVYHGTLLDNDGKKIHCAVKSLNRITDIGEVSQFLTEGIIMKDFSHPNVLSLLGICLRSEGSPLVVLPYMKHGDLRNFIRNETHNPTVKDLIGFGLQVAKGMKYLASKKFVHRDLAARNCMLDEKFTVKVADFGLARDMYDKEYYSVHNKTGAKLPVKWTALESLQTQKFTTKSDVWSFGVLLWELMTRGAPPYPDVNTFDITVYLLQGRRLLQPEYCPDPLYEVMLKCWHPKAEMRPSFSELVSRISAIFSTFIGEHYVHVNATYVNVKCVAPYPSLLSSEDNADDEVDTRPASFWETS
T9 sequence (P41240 whole entry): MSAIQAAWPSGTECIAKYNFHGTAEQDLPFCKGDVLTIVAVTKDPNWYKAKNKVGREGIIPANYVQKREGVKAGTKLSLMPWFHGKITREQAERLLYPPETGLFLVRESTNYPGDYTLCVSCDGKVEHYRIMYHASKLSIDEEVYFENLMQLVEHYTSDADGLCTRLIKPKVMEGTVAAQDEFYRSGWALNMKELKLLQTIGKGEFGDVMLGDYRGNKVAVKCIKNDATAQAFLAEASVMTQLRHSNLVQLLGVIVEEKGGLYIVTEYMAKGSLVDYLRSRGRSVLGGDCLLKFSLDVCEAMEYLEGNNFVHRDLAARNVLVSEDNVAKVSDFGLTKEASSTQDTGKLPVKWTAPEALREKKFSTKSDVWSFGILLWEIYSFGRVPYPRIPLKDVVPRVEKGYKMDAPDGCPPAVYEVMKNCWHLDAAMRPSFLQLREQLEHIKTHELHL

Structure (SMILES): COc1cc(C(=O)NCC(=O)Nc2ccc3c(/C=C/c4ccccn4)n[nH]c3c2)cc(OC)c1OC [CHMFL-KIT-031]
- KINOMEScan profiling value (CHEK1): 97
- KINOMEScan profiling value (EGFR(T790M)): 100
- KINOMEScan profiling value (QSK): 82
- KINOMEScan profiling value (CDK3): 100
- KINOMEScan profiling value (ACVR2B): 100
- EC50 (KIT V559D [1]; COLO 320DM-KIT-V559D, read-out: EC50 P-CKIT Y719): 239 nM
- EC50 (KIT V559D [1]; COLO 320DM-KIT-V559D, read-out: EC50 P-CKIT Y823): 147 nM
- EC50 (KIT V559D [1]; Colo320DM cells overexpressing KIT V559D, range over the sites, read-out: EC50 phosphorylation of KIT V559D mutant (Y703, 719 and Y823 sites)): 176 to 339 nM
- selectivity compared to KIT wt at the corresponding phosphorylation sites (KIT V559D [1]; Colo320DM cells, EC50): over 10 fold
- EC50 (KIT V559D [1]; in cell, KIT V559D, read-out: EC50 pY703): 176 nM
- EC50 (KIT V559D/V654A; [5]): 5600 nM
- EC50 (KIT V559D/V654A; [6]): 863 nM
- EC50 (KIT V559D/V654A; [7]): 5400 nM
- Kd (KIT wt): 6640 nM
- KINOMEScan profiling value (EGFR(E746-A750del)): 100
- KINOMEScan profiling value [2]: 97
- KINOMEScan profiling value (CSK): 87
- KINOMEScan profiling value [3]: 100
- KINOMEScan profiling value (MET(M1250T)): 100
- KINOMEScan profiling value (LZK): 100
- S score (1) (468 kinases/mutants): 0.01
- EC50 (KIT V559D [4]; [5]): 151 nM
- EC50 (KIT V559D [4]; [6]): 137 nM
- EC50 (KIT V559D [4]; [7]): 118 nM
- KINOMEScan profiling value (MARK4): 96
- KINOMEScan profiling value (CIT): 64
- GI50 (BaF3): > 10000 nM
- KINOMEScan profiling value (IRAK4): 100
- KINOMEScan profiling value (FLT3(ITD,F691L)): 91
- KINOMEScan profiling value (FLT3(ITD,D835V)): 73
- EC50 (KIT V654A; [5]): 508 nM
- EC50 (KIT V654A; [6]): 2200 nM
- EC50 (KIT V654A; [7]): 4600 nM
- KINOMEScan profiling value (LATS2): 100
- KINOMEScan profiling value (MST3): 86
- KINOMEScan profiling value (MET): 100
- KINOMEScan profiling value (CDK11): 59
